{"source": "ChEMBL document CHEMBL1201862", "about": "“PubChem BioAssay data set” (2004)", "format_in_all_cases": "functional", "key": {"[1]": {"biological_target": "Prothrombin (Homo sapiens, UniProt P00734)", "assay": "Thrombin 1536 HTS Dose Response Confirmation. [Related pubchem assays: 1046 (Thrombin 1536 HTS; hits were confirmed in this assay)]"}, "[2]": {"biological_target": "T1, Corticotropin-releasing factor receptor 2/Corticotropin-releasing factor-binding protein (Homo sapiens, UniProt P24387+Q13324)", "T1 sequence (Q13324 whole entry)": "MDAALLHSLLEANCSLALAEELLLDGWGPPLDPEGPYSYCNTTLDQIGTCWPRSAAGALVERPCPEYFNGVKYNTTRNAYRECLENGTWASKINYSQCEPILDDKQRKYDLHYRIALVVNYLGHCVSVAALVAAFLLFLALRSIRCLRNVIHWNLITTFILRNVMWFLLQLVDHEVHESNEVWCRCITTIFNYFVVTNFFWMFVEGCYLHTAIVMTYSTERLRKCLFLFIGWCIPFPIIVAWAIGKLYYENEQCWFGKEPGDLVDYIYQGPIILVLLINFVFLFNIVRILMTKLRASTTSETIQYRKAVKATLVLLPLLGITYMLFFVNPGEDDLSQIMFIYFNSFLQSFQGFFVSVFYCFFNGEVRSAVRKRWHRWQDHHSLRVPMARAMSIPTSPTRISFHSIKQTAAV", "T1 sequence (P24387 whole entry)": "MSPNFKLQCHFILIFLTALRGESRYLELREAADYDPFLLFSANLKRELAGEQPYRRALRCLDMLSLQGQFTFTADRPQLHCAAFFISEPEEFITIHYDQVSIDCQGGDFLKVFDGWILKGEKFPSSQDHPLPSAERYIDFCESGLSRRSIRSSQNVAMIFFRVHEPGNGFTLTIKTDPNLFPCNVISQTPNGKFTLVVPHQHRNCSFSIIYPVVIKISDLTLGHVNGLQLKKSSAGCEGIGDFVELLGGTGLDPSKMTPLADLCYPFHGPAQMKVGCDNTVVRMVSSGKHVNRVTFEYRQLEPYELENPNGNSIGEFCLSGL", "assay": "Dose Response confirmation of uHTS hits for small molecule antagonists of the CRF-binding protein and CRF-R2 receptor complex.", "conditions": "read-out: IC50_Mean"}, "[3]": {"biological_target": "Mitochondrial peptide methionine sulfoxide reductase (Bos taurus, UniProt P54149)", "sequence (P54149 whole entry)": "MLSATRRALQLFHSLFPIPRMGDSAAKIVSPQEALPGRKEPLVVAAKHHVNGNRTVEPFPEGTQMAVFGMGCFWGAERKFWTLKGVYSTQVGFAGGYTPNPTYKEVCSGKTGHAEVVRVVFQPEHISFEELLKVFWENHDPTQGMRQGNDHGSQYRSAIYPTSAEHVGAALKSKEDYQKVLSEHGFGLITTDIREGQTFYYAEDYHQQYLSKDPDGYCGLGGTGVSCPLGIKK", "assay": "Absorbance-based biochemical high throughput dose response assay for activators of Methionine sulfoxide reductase A (MsrA)."}, "[4]": {"biological_target": "T2, Sentrin-specific protease 8 (Homo sapiens, UniProt Q96LD8)", "T2 sequence (Q96LD8 whole entry)": "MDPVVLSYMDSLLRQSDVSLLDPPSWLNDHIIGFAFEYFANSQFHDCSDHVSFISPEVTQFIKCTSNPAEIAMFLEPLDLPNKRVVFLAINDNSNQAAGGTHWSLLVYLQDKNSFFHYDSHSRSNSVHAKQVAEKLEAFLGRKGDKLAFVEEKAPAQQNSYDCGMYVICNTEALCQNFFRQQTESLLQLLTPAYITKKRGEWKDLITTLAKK", "assay": "inhibition of human SENP8 cleavage activity – biochemical, luminescence, SAR follow-up (AID 504501)"}, "[5]": {"biological_target": "T3, Caspase-3 (Homo sapiens, UniProt P42574)", "T3 sequence (P42574 whole entry)": "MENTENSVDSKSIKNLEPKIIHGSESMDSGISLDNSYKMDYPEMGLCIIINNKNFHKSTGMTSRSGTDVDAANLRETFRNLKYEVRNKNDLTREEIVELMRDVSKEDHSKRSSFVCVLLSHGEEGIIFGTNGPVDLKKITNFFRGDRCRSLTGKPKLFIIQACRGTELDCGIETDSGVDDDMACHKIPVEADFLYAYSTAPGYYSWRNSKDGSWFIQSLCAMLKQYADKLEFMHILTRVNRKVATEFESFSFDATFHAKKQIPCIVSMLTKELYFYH", "assay": "SAR Analysis of small molecule inhibitors of Sentrin-specific proteases (SENPs) using a Caspase-3 Selectivity assay. [Related pubchem assays (depositor defined):AID2540, AID2599, AID434973, AID489001]"}, "[6]": {"biological_target": "Proto-oncogene tyrosine-protein kinase receptor Ret (Homo sapiens, UniProt P07949)"}, "[7]": {"biological_target": "MAP kinase-activated protein kinase 2 (Homo sapiens, UniProt P49137)", "sequence (P49137 whole entry)": "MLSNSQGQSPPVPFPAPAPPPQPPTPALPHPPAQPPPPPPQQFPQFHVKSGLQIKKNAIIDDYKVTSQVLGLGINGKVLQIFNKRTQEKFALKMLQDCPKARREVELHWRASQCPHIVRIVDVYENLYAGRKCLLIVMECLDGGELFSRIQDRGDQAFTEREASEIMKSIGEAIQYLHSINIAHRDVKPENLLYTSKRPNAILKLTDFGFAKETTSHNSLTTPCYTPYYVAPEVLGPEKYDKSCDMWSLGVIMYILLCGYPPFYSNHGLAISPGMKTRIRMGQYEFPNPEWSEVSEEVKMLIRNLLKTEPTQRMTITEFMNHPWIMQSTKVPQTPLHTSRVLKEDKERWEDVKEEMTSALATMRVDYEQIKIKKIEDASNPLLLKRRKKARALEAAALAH"}, "[8]": {"biological_target": "Tyrosine-protein kinase BTK (Homo sapiens, UniProt Q06187)"}, "[9]": {"biological_target": "Serine/threonine-protein kinase PAK 4 (Homo sapiens, UniProt O96013)"}, "[10]": {"biological_target": "Calcium/calmodulin-dependent protein kinase type II subunit delta (Homo sapiens, UniProt Q13557)", "sequence (Q13557 whole entry)": "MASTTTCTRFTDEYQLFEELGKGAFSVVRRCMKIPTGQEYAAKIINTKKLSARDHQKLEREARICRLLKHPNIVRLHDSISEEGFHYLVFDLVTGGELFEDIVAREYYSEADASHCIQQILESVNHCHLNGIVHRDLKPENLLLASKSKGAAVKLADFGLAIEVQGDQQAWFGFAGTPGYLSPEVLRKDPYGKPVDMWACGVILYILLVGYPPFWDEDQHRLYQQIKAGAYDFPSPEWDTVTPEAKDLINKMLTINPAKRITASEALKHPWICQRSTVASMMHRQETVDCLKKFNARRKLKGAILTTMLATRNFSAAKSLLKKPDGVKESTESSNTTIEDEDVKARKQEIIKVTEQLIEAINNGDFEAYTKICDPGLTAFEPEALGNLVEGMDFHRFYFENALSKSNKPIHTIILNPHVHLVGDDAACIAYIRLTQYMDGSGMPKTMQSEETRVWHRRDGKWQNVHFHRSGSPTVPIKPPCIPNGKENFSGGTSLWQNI"}, "[11]": {"biological_target": "Insulin receptor (Homo sapiens, UniProt P06213)", "sequence (P06213 28-758 limits assumed)": "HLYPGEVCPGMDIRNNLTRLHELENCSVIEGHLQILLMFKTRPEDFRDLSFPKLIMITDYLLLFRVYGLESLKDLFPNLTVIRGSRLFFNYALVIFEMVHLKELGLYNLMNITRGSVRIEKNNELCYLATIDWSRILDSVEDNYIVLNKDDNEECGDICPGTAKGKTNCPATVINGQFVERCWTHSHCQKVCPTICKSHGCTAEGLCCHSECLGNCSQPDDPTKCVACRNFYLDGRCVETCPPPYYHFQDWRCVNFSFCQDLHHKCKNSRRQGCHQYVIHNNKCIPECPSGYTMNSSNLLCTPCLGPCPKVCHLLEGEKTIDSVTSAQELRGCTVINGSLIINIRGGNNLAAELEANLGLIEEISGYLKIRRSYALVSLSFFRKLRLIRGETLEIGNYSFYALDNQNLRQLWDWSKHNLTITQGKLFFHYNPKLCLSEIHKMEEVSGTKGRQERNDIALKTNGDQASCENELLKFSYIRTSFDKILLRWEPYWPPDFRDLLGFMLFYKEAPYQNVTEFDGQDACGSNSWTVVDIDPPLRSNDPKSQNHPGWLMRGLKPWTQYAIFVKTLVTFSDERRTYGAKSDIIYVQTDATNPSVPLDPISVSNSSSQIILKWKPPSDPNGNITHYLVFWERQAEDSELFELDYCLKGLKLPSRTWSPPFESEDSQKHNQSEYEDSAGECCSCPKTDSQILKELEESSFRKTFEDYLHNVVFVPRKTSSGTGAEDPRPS", "sequence (P06213 763-1382 limits assumed)": "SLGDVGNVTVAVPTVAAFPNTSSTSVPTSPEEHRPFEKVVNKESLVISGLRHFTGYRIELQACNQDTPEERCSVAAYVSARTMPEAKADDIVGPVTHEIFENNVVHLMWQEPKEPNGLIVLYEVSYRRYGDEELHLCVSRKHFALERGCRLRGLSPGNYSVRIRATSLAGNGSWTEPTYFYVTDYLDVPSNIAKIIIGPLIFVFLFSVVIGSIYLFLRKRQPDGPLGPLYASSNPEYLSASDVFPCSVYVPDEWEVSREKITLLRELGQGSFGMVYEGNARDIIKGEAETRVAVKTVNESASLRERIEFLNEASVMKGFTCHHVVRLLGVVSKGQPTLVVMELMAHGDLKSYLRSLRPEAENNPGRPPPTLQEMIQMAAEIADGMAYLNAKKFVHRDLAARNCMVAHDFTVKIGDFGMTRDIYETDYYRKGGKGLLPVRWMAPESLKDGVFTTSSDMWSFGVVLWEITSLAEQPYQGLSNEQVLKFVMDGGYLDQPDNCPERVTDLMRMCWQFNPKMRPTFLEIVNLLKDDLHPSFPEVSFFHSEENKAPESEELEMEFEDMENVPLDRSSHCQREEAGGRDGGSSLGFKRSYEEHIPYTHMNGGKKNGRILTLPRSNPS"}, "[12]": {"biological_target": "Mitogen-activated protein kinase kinase kinase 20 (Homo sapiens, UniProt Q9NYL2)"}, "[13]": {"biological_target": "Proto-oncogene tyrosine-protein kinase Src (Homo sapiens, UniProt P12931)", "sequence (P12931 2-536 limits assumed)": "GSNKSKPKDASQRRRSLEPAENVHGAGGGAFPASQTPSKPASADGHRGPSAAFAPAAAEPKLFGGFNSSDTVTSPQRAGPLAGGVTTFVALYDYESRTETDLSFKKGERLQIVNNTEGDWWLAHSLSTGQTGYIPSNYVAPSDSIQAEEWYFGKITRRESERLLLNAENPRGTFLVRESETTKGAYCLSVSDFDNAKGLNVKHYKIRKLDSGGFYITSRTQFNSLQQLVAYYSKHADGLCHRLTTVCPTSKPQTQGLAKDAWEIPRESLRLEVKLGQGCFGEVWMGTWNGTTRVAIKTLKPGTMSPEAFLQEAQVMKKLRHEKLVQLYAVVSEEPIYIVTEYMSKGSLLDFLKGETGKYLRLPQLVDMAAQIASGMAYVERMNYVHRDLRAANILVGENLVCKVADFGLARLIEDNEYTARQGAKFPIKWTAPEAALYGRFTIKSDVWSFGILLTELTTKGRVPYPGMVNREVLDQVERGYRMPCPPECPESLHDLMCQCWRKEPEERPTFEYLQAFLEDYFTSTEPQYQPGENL"}, "[14]": {"biological_target": "Glycogen synthase kinase-3 alpha (Homo sapiens, UniProt P49840)"}, "[15]": {"biological_target": "Mitogen-activated protein kinase kinase kinase kinase 2 (Homo sapiens, UniProt Q12851)"}, "[16]": {"biological_target": "Casein kinase I isoform delta (Homo sapiens, UniProt P48730)", "sequence (P48730 whole entry, canonical isoform)": "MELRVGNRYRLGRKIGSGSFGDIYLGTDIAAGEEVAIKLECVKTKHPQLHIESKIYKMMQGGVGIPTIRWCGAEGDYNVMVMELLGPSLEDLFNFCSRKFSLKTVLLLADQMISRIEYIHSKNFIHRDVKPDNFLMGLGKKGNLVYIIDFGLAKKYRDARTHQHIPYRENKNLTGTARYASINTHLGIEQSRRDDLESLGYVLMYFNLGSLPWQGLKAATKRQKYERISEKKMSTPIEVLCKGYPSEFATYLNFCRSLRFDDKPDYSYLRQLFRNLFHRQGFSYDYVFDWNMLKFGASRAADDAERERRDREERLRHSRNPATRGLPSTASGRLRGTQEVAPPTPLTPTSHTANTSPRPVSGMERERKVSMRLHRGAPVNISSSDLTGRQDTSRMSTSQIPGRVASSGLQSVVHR"}, "[17]": {"biological_target": "Aurora kinase B (Homo sapiens, UniProt Q96GD4)"}, "[18]": {"biological_target": "Interleukin-1 receptor-associated kinase 4 (Homo sapiens, UniProt Q9NWZ3)"}, "[19]": {"biological_target": "Vascular endothelial growth factor receptor 3 (Homo sapiens, UniProt P35916)"}, "[20]": {"biological_target": "Tyrosine-protein kinase Fer (Homo sapiens, UniProt P16591)"}, "[21]": {"biological_target": "Calcium/calmodulin-dependent protein kinase type 1 (Homo sapiens, UniProt Q14012)", "sequence (Q14012 whole entry)": "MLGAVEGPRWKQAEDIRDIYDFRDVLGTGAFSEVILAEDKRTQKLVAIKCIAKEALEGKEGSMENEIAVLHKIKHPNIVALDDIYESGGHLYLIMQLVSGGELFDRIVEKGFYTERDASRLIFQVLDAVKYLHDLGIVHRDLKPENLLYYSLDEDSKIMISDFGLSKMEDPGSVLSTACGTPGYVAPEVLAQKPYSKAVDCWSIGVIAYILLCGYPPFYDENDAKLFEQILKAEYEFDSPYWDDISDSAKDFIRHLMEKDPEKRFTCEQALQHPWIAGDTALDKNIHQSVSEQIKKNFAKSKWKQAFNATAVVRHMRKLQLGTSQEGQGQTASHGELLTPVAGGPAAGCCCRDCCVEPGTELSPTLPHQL"}, "[22]": {"biological_target": "Cyclin-dependent kinase 1 (Homo sapiens, UniProt P06493)", "sequence (P06493 whole entry)": "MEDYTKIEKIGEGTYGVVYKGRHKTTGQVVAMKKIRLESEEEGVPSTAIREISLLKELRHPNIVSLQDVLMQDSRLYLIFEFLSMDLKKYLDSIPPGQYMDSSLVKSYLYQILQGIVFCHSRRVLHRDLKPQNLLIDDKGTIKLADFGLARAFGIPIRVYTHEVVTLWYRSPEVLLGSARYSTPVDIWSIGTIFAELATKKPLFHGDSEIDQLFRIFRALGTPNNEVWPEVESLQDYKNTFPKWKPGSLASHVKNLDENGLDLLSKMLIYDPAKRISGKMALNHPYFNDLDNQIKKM"}, "[23]": {"biological_target": "BDNF/NT-3 growth factors receptor (Homo sapiens, UniProt Q16620)", "sequence (Q16620 whole entry)": "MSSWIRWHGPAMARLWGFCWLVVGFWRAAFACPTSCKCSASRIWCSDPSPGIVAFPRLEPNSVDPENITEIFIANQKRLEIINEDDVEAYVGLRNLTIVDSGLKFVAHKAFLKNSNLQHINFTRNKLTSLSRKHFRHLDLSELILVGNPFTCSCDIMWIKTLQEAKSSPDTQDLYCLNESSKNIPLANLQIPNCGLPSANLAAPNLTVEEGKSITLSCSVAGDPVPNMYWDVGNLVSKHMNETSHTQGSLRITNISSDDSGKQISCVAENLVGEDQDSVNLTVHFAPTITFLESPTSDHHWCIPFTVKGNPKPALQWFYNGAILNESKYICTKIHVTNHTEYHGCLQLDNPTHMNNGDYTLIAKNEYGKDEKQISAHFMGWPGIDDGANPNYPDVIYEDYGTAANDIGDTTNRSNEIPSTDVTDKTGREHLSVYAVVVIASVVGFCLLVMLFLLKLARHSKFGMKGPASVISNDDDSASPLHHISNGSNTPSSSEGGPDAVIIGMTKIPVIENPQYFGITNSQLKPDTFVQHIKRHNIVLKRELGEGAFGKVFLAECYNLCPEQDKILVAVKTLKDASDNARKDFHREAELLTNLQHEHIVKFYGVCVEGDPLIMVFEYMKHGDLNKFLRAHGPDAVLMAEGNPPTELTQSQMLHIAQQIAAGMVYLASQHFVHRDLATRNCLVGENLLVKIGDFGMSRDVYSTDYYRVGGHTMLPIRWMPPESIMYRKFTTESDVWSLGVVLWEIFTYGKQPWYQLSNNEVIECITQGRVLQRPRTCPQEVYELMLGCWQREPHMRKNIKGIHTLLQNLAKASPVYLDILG"}, "[24]": {"biological_target": "Polyadenylate-binding protein 1 (Homo sapiens, UniProt P11940)", "assay": "MLLE binding blockers, Cy5 peptide tracer – biochemical, fluorescence polarization, Cy5-PAM2 peptide, secondary, miRNA deadenylation inhibitor project, dose response (AID 602260)", "conditions": "read-out: IC50_Mean"}, "[25]": {"biological_target": "Lymphokine-activated killer T-cell-originated protein kinase (Homo sapiens, UniProt Q96KB5)"}, "[26]": {"biological_target": "Mitogen-activated protein kinase kinase kinase kinase 4 (Homo sapiens, UniProt O95819)"}}, "note": "Active and inactive are the calls of the source.", "data": [{"smiles": "O=C(COC(=O)c1ccc([N+](=O)[O-])s1)Nc1cccc(S(=O)(=O)/N=C2/CCCCCN2)c1", "values": [{"measurement": "IC50", "setting": "[1]", "result": "> 50000 nM (not active)"}, {"measurement": "IC50", "setting": "[2]", "result": "> 47100 nM (inactive)"}, {"measurement": "EC50", "setting": "[3]", "result": "70400 nM (inactive)"}]}, {"smiles": "COc1ccc(C(C[N+](=O)[O-])c2c(C)[nH]n(-c3ccccc3)c2=O)cc1", "note": "(stereo unspecified)", "values": [{"measurement": "IC50", "setting": "[4]", "result": "28100 nM (active)"}, {"measurement": "IC50", "setting": "[5]", "result": "45500 nM (active)"}]}, {"smiles": "Oc1c2ccccc2c2c3c(cccc13)N=N2", "note": "[SP-600125]", "values": [{"measurement": "Ki", "setting": "[6]", "result": "63.1 nM (active)"}, {"measurement": "Ki", "setting": "[7]", "result": "> 7940 nM (inactive)"}, {"measurement": "Ki", "setting": "[8]", "result": "> 1260 nM (inactive)"}, {"measurement": "Ki", "setting": "[9]", "result": "> 5010 nM (inactive)"}, {"measurement": "Ki", "setting": "[10]", "result": "1000 nM (active)"}, {"measurement": "Ki", "setting": "[11]", "result": "501 nM (active)"}, {"measurement": "Ki", "setting": "[12]", "result": "501 nM (active)"}, {"measurement": "Ki", "setting": "[13]", "result": "> 2000 nM (inactive)"}, {"measurement": "Ki", "setting": "[14]", "result": "1260 nM (active)"}, {"measurement": "Ki", "setting": "[15]", "result": "50.1 nM (active)"}, {"measurement": "Ki", "setting": "[16]", "result": "31.6 nM (active)"}, {"measurement": "Ki", "setting": "[17]", "result": "10 nM (active)"}, {"measurement": "Ki", "setting": "[18]", "result": "158 nM (active)"}, {"measurement": "Ki", "setting": "[19]", "result": "15.8 nM (active)"}, {"measurement": "Ki", "setting": "[20]", "result": "50.1 nM (active)"}, {"measurement": "Ki", "setting": "[21]", "result": "> 1580 nM (inactive)"}, {"measurement": "Ki", "setting": "[22]", "result": "1000 nM (active)"}, {"measurement": "Ki", "setting": "[23]", "result": "794 nM (active)"}, {"measurement": "IC50", "setting": "[24]", "result": "> 66000 nM (inactive)"}, {"measurement": "Ki", "setting": "[25]", "result": "1000 nM (active)"}, {"measurement": "Ki", "setting": "[26]", "result": "316 nM (active)"}]}]}
